Experimental data taken from PMC4645114, “Discovery of Novel ROCK1 Inhibitors via Integrated Virtual Screening Strategy and Bioassays” (Scientific Reports, 2015).
“And” between values parts separate entries of the source, which are not always exact repeats. Equal values may be shown once. Each block holds one molecule with its values, some of them ahead of it.

Experiments:
[1] = target: T1, ROCK1 (Homo sapiens, UniProt Q13464); assay: Z′-LYTE kinase assay, ROCK1 enzyme activity; type: biochemical
T1 construct: 15 μl kinase reaction volume with 5 ng ROCK1 enzyme
T1 sequence (Q13464 whole entry): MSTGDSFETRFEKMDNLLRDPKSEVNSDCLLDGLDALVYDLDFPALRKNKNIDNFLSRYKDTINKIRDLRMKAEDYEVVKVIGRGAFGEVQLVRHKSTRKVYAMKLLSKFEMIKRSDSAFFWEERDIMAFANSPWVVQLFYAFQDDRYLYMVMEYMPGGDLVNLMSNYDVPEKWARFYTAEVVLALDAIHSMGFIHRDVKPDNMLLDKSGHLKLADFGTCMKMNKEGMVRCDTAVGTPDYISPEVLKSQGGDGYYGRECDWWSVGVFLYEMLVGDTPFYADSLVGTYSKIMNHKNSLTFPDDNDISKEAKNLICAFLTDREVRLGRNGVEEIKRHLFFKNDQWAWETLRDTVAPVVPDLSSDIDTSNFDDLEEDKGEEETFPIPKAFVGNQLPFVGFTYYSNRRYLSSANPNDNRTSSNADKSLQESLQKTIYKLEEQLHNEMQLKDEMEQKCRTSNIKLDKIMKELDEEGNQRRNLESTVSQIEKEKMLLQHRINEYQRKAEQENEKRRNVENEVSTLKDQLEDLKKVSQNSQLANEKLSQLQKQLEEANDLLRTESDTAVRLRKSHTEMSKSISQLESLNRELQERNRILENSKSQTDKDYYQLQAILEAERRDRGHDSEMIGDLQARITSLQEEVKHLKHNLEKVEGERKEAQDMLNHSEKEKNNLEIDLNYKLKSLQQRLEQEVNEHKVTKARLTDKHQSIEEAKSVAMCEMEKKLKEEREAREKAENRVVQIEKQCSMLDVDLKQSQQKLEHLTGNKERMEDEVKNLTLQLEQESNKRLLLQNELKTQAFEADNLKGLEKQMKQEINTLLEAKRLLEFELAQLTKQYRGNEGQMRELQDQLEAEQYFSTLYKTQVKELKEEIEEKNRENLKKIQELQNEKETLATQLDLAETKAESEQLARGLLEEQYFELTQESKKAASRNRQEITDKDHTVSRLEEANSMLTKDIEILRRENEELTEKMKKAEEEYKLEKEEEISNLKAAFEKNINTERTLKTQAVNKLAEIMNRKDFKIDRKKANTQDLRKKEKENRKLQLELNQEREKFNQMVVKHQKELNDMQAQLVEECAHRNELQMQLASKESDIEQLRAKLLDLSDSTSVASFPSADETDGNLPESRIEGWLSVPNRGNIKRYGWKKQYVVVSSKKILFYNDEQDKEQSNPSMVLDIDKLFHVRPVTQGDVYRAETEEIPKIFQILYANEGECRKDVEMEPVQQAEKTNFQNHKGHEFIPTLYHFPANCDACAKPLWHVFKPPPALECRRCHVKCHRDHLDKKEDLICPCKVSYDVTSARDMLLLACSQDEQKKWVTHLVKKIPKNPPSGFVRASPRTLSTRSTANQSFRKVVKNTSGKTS
Protocol: Kinase inhibition was measured by using the Z′-LYTE™ Kinase Assay Kit with Ser/Thr 7 peptide substrate (Invitrogen, cat. PV3180). Compounds were tested on three individual times with eight point dilutions performed in duplicate to determine the average IC50 values. The assay conditions were optimized to 15 μl kinase reaction volume with 5 ng ROCK1 enzyme in 50 mM HEPES (pH = 7.5), 10 mM MgCl2, 0.01% Brij-35 and 1 mM EGTA. Initially, the reaction was incubated for 1 hour at room temperature in the presence of 1.5 μM peptide substrate and 12.5 μM ATP for ROCK1. Then, 5 μL development reagent A was added and the assay plate was incubated for another 1 hour. Finally, […] stop reagent was added and the assay plate was shaken for 1 hour. The coumarin (ex. 400 nm, em. 445 nm) and fluorescein (ex. 400 nm, em. 520 nm) emission signals were measured on a fluorescence plate reader (Thermo Scientific Varioskan Flash).

[2] = tested on: phosphorylation of cofilin (ROCK pathway) in HUVEC; assay: Western blotting of cofilin phosphorylation in HUVEC; type: cell-based, Human; conditions: compared with the control group
Protocol: Human umbilical vein endothelial cells (HUVEC, ATCC, Manassas, USA) were cultured and maintained in the F-12 K medium with 2 mM L-glutamine, 1.5 g/L sodium bicarbonate, 100 μg/mL heparin, 30 μg/mL endothelial cell growth supplement and 10% fetal bovine serum (FBS) at 37 °C in a humidified atmosphere of 5% CO2. Cells were exposed to culture medium with 10% FBS for at least 1 day before experiments. Only 3–6 passages of cells were used in this study.
HUVEC was pretreated with different targeted compounds (TS-15 and TS-40) for 1 hour. Y27632 and 0.2% DMSO were used as the positive control and vehicle control, respectively. After drug treatment, cells were washed with pre-cold PBS and lysed on ice with RIPA lysis buffer for 30 min, followed by centrifugation at 12,500 g for 20 min at 4 °C. The supernatant was collected and protein concentration was determined using the BCA protein assay kit (Thermo Scientific Pierce). Aliquots of protein samples were boiled for 5 min at 95 °C and electrophoresed on 10% SDS-PAGE and then transferred to a polyvinylidene difluoride membrane (Bio-Rad, Hercules, CA, USA). Subsequently, the membrane was blocked with 5% (w/v) nonfat milk in TBS-T buffer for 1 hour at room temperature. The blots were incubated overnight at 4 °C with primary antibodies. After being washed with TBS-T for 20 min at room temperature, the membranes were further incubated with horseradish peroxidase-conjugated secondary antibodies for 2 hours at room temperature. Finally, protein bands were visualized using ECL Plus Western blotting detection reagents (GE Healthcare, Piscataway, NJ, USA). The membranes were then scanned on a Bio-Rad ChemiDoc imaging system and the intensity of the protein bands was analyzed using the Bio-Rad Image Lab software.

[3] = tested on: zebrafish embryos; assay: Atorvastatin-induced cerebral hemorrhage in zebrafish; type: in vivo; set-up: hemorrhage changes compared with the disease model group: dose or concentration left out as unconfirmed; conditions: for Cerebral hemorrhage rate (%): then atorvastatin 24 hours; for hemorrhage changes compared with the disease model group: atorvastatin 24 hours
Protocol: Tg (fli1a:EGFP)y1; Tg (gata1a:dsRed)sd2 homozygous double transgenic zebrafish was used and maintained as described in our previous study. […] The animal experiments were carried out in “accordance” with the approved guidelines of the Animal Research Ethics Committee, University of Macau and approved by the Animal Research Ethics Committee, University of Macau.
Tg (fli1a:EGFP)y1; Tg (gata1a:dsRed)sd2 homozygous double transgenic zebrafish embryos at 22 hours post-fertilization (hpf) were pretreated with the targeted compounds (TS 15 and TS 40) for 2 hours. During this period, the positive control group was treated with […] Y27632 while the vehicle control group was given with 0.2% DMSO (solvent). Then, all the pretreated embryos washed with PBS for 3 times and challenged with 1 mM atorvastatin for 24 hours according to the reported protocol with small modifications. After that, the viability and cerebral hemorrhage changes were observed using a fluorescence microscope (Olympus IX81 Motorized Inverted Microscope, Japan) equipped with a digital camera (DP controller, Soft Imaging System, Olympus, Germany). The results were analyzed with Axiovision 4.2 (Soft Imaging System, Olympus, Germany) and the public-domain Image J software (Rasband WS, Image J; US National Institutes of Health, Bethesda, MD). The cerebral hemorrhage rate of each group was calculated by the number of zebrafish with cerebral hemorrhage to the total number of each group.

[4] = ROCK1, 12.5 μM ATP, 8-point dilutions, three individual times

Compound: O=c1[nH]c2ccc(-c3cc(NC4CCCC4)nc4[nH]ccc34)cc2[nH]c1=O [TS-11]
IC50 [1, 4]: 67.2 ± 0.57 µM

Compound: OC(CN1CCOCC1)c1ccc(-c2ccnc3[nH]ccc23)cc1 (stereo not shown) [TS-15]
IC50 [1, 4]: < 1 µM and 0.25 µM | IC50 ([1]; ROCK1, value given in text): < 0.3 µM | phosphorylation level of cofilin (p-cofilin band, ratio to T-cofilin) [2]: significant inhibitory effects | Cerebral hemorrhage rate (%) ([3]; 6 μM pretreatment): 79.3 ± 5.9% | Cerebral hemorrhage rate (%) ([3]; 20 μM pretreatment): 73.5 ± 13.0 % | Cerebral hemorrhage rate (%) ([3]; 60 μM pretreatment): <60 ^b,* % | hemorrhage changes compared with the disease model group [3]: obviously abated | inhibitory rate against cerebral hemorrhage ([3]; dose of 6 μM): 79.3% | inhibitory rate against cerebral hemorrhage ([3]; dose of 20 μM): 73.5% | toxicity to zebrafish ([3]; dose of 20 μM): relatively safe | inhibitory rate against cerebral hemorrhage ([3]; dose of 60 μM): < 60% | toxicity to zebrafish ([3]; dose of 60 μM): toxic

Compound: CNc1cc(-c2ccccc2OCCn2ccnc2)c2cc[nH]c2n1 [TS-27]
IC50 [1, 4]: 26.5 ± 1.13 µM

Compound: NS(=O)(=O)c1ccc(-c2ccnc3[nH]ccc23)c(F)c1 [TS-40]
IC50 [1, 4]: < 1 µM and 0.15 µM | IC50 ([1]; ROCK1, value given in text): < 0.3 µM | phosphorylation level of cofilin (p-cofilin band, ratio to T-cofilin) [2]: significant inhibitory effects | Cerebral hemorrhage rate (%) ([3]; 6 μM pretreatment): 90.6 ± 7.4% | Cerebral hemorrhage rate (%) ([3]; 20 μM pretreatment): 78.8 ± 7.1 % | Cerebral hemorrhage rate (%) ([3]; 60 μM pretreatment): 66.2 ± 7.2 % | hemorrhage changes compared with the disease model group [3]: obviously abated | inhibitory rate against cerebral hemorrhage ([3]; dose of 20 μM): 78.8% | inhibitory rate against cerebral hemorrhage ([3]; dose of 60 μM): 66.2%

Compound: OCCCNCc1cccc(-c2ccnc3[nH]ccc23)c1 [TS-f5]
IC50 [1, 4]: 1.55 ± 0.57 µM

Compound: CN(Cc1cccc(C(=O)Nc2ccc3[nH]ncc3c2)c1)Cc1cc[nH]n1 [TS-f6]
IC50 [1, 4]: 12.4 ± 0.85 µM

Compound: NCC1CCN(Cc2ccc(-c3nc(-c4ccncc4)cc(=O)[nH]3)cc2)CC1 [TS-f7]
IC50 [1, 4]: 28.3 ± 0.99 µM

Compound: O=S(=O)(c1ccccc1)c1ccc(-c2ccnc3[nH]ccc23)cc1 [TS-f13]
IC50 [1, 4]: 3.2 ± 1.06 µM

Compound: Cn1ncc2cc(-c3ccnc4[nH]ccc34)ccc21 [TS-f22]
IC50 [1, 4]: < 1 µM and 0.48 µM

Compound: Cc1nc(-c2cccc(-c3ccnc4[nH]ccc34)c2)no1 [TS-f26]
IC50 [1, 4]: 3.48 ± 1.65 µM

Compound: CN(Cc1cc(F)ccc1O)Cc1cccc2cnccc12 [TS-f28]
IC50 [1, 4]: 23.05 ± 0.07 µM

Compound: CCCCNC(=O)c1ccc(-c2ccnc3[nH]ccc23)o1 [TS-f32]
IC50 [1, 4]: 2.21 ± 0.21 µM

Compound: C[C@@H](N)[C@H]1CC[C@H](C(=O)Nc2ccncc2)CC1 [Y27632, reference compound]
phosphorylation level of cofilin (p-cofilin band, ratio to T-cofilin) [2]: reduced significantly | Cerebral hemorrhage rate (%) ([3]; 10 μM pretreatment): 74.4 ± 8.7 % | hemorrhage changes compared with the disease model group [3]: obviously abated | inhibitory rate against cerebral hemorrhage ([3]; dose of 10 μM): 74.4%

Continued by falling IC50 [1, 4], values first:

IC50 [1, 4]: 31.4 ± 1.63 µM
Compound: O=C(NCCc1c[nH]cn1)c1coc(COc2cccc3cnccc23)n1 [TS-f10]

IC50 [1, 4]: 9.94 ± 4.33 µM
Compound: COCCNc1cc(-c2ccc(C3(O)CCNCC3)cc2)c2cc[nH]c2n1 [TS-16]

IC50 [1, 4]: 6.71 ± 1.48 µM
Compound: Nc1cc(-c2ccc(C3(O)CCNCC3)cc2)c2cc[nH]c2n1 [TS-28]

IC50 [1, 4]: 4.42 ± 1.14 µM
Compound: COCc1nc2cc(-c3ccnc4[nH]ccc34)ccc2o1 [TS-f25]

IC50 [1, 4]: 1.82 ± 0.76 µM
Compound: c1cc(OCCn2ccnc2)cc(-c2ccnc3[nH]ccc23)c1 [TS-f37]
